Laboratory results published in BindingDB's records for doi:10.1074/jbc.M402433200 (University of Bristol, 2004).
pIC50, pKi: −log10 of the molar value.

Columns and labels:
[1] = target: L-lactate dehydrogenase B chain (Homo sapiens, UniProt P07195); assay: Lactate Dehydrogenase Inhibition Assay
Text: (§1) An LDH enzymatic assay developed for high throughput format was used. The dehydrogenase reaction was run in the lactate to pyruvate direction and coupled with the ability of diaphorase to reduce p-iodonitrotetrazolium violet using the NADH generated in the conversion of lactate to pyruvate. The progression of the coupling reaction was monitored as the increase of absorbance at 492 nm. Positive hits were subjected to additional analysis to determine IC50 values.

[2] = target: L-lactate dehydrogenase (Plasmodium falciparum (isolate CDC / Honduras), UniProt Q27743); assay: Lactate Dehydrogenase Inhibition Assay; settings: pH 7.5; 25 °C
Text: as §1

Chain of L-lactate dehydrogenase B chain (P07195 whole entry): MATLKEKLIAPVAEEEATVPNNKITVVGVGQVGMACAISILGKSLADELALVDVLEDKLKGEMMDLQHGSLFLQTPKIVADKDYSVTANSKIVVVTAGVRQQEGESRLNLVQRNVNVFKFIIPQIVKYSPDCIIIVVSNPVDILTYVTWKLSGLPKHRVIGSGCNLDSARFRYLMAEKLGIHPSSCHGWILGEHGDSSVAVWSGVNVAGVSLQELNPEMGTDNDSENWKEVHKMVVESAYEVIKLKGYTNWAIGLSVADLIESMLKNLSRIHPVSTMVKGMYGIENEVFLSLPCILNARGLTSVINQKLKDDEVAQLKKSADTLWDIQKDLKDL
Chain of L-lactate dehydrogenase (Q27743 whole entry): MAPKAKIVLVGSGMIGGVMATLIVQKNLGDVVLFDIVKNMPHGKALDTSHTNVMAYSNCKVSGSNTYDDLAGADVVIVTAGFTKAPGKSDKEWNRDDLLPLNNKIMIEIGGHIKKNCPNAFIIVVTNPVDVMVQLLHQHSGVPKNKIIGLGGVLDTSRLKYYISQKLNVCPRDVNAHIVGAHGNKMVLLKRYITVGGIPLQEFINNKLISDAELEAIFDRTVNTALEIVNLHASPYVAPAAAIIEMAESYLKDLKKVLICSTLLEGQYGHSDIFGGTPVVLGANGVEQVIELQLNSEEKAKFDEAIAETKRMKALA

| SMILES | pIC50 [1] | pIC50 [2] | pKi [2] |
| --- | --- | --- | --- |
| O=C(O)c1cnon1 [1,2,5-oxadiazole-3-carboxylic acid] | < 3.70 | < 3.70 | – |
| O=C(O)c1c(O)nnn1Cc1ccccc1 [1-benzyl-4-hydroxy-1H-1,2,3-triazole-5-carboxylic acid] | < 4.00 | < 4.00 | – |
| O=C(O)c1cnn[nH]1 [1H-1,2,3-triazole-5-carboxylic acid] | < 3.70 | 4.01 | – |
| O=C(O)Cc1no[nH]c1=O [2-(4-hydroxy-1,2,5-oxadiazol-3-yl)acetic acid] | < 3.70 | < 3.70 | – |
| O=C(O)c1nn(Cc2ccccc2)[nH]c1=O [2-benzyl-5-hydroxy-2H-1,2,3-triazole-4-carboxylic acid] | < 4.00 | < 4.00 | – |
| Cn1occ(C(=O)O)c1=O [2-methyl-3-oxo-2,3-dihydro-1,2-oxazole-4-carboxylic acid] | < 4.00 | < 4.00 | – |
| O=C(O)c1conc1O [3-hydroxy-1,2-oxazole-4-carboxylic acid] | 4.27 | 5.96 | 6.33 |
| Cc1o[nH]c(=O)c1C(=O)O [3-hydroxy-5-methyl-1,2-oxazole-4-carboxylic acid] | < 4.00 | < 4.00 | – |
| COc1nocc1C(=O)O [3-methoxy-1,2-oxazole-4-carboxylic acid] | < 4.00 | < 4.00 | – |
| O=C(O)c1nonc1NCCO [4-[(2-hydroxyethyl)amino]-1,2,5-oxadiazole-3-carboxylic acid] | < 3.70 | < 3.70 | – |
| Nc1nonc1C(=O)O [4-amino-1,2,5-oxadiazole-3-carboxylic acid] | < 3.70 | < 3.70 | – |
| Nc1nsnc1C(=O)O [4-amino-1,2,5-thiadiazole-3-carboxylic acid] | < 4.00 | < 4.00 | – |
| O=C(O)c1nonc1O [4-hydroxy-1,2,5-oxadiazole-3-carboxylic acid] | 4.14 | 6.19 | 6.68 |
| O=C(O)c1nsnc1O [4-hydroxy-1,2,5-thiadiazole-3-carboxylic acid] | 4.99 | 6.85 | 6.54 |
| O=C(O)c1noc(C(=O)O)c1O [4-hydroxy-1,2-oxazole-3,5-dicarboxylic acid] | < 4.00 | 4.09 | – |
| O=C(O)c1nocc1O [4-hydroxy-1,2-oxazole-3-carboxylic acid] | < 4.00 | 4.80 | – |
| Cn1nnc(O)c1C(=O)O [4-hydroxy-1-methyl-1H-1,2,3-triazole-5-carboxylic acid] | < 4.00 | < 4.00 | – |
| COc1nsnc1C(=O)O [4-methoxy-1,2,5-thiadiazole-3-carboxylic acid] | < 4.00 | < 4.00 | – |
| O=C(O)c1nonc1OC/C=C/c1ccccc1 [4-{[(2E)-3-phenylprop-2-en-1-yl]oxy}-1,2,5-oxadiazole-3-carboxylic acid] | < 3.70 | < 3.70 | – |
| Cn1nc(O)c(C(=O)O)n1 [5-hydroxy-2-methyl-2H-1,2,3-triazole-4-carboxylic acid] | < 4.00 | < 4.00 | – |
| O=C(OCc1ccc(Cl)c(Cl)c1)c1no[nH]c1=O [(3,4-dichlorophenyl)methyl 4-hydroxy-1,2,5-oxadiazole-3-carboxylate] | < 3.70 | < 3.70 | – |
| CCOC(=O)c1co[nH]c1=O [ethyl 3-hydroxy-1,2-oxazole-4-carboxylate] | < 4.00 | < 4.00 | – |
| CCOC(=O)c1nonc1OCc1ccc(OC)cc1 [ethyl 4-[(4-methoxyphenyl)methoxy]-1,2,5-oxadiazole-3-carboxylate] | < 3.70 | < 3.70 | – |
| CCOC(=O)c1nonc1O [ethyl 4-hydroxy-1,2,5-oxadiazole-3-carboxylate] | < 4.00 | < 4.00 | – |
| CCOC(=O)c1c[nH]oc1=O [ethyl 5-hydroxy-1,2-oxazole-4-carboxylate] | < 4.00 | < 4.00 | – |
| COC(=O)c1c(C)[nH]oc1=O [methyl 5-hydroxy-3-methyl-1,2-oxazole-4-carboxylate] | < 4.00 | < 4.00 | – |
